# Measured values taken from the NIST ThermoML archive (doi:10.1016/j.fluid.2017.12.010).
# ± gives the expanded uncertainty stated by the source.
# Assay: xn = mol fraction of the nth substance listed
# Conditions: Liquid, Vibrating tube method
structure (smiles),measurement,setting,value
CCCCCCCCCCCC [dodecane] + CCCCCCCCCC,mass density,"303.31 K, 1000 kPa, x2 = 0.2297",739 ± 3 kg/m3
same,mass density,"303.32 K, 5000 kPa, x2 = 0.2297",742 ± 3 kg/m3
same,mass density,"303.32 K, 10000 kPa, x2 = 0.2297",745 ± 3 kg/m3
same,mass density,"303.33 K, 20000 kPa, x2 = 0.2297",752 ± 3 kg/m3
same,mass density,"303.33 K, 30000 kPa, x2 = 0.2297",759 ± 3 kg/m3
same,mass density,"303.34 K, 40000 kPa, x2 = 0.2297",765 ± 3 kg/m3
same,mass density,"303.35 K, 100 kPa, x2 = 0.2297",738 ± 3 kg/m3
same,mass density,"303.35 K, 60000 kPa, x2 = 0.2297",775 ± 3 kg/m3
same,mass density,"303.35 K, 80000 kPa, x2 = 0.2297",785 ± 3 kg/m3
same,mass density,"303.35 K, 100000 kPa, x2 = 0.2297",794 ± 3 kg/m3
same,mass density,"303.39 K, 100 kPa, x2 = 0.4436",734 ± 3 kg/m3
same,mass density,"303.39 K, 1000 kPa, x2 = 0.4436",735 ± 3 kg/m3
same,mass density,"303.39 K, 5000 kPa, x2 = 0.4436",738 ± 3 kg/m3
same,mass density,"303.39 K, 10000 kPa, x2 = 0.4436",742 ± 3 kg/m3
same,mass density,"303.41 K, 20000 kPa, x2 = 0.4436",749 ± 3 kg/m3
same,mass density,"303.41 K, 40000 kPa, x2 = 0.4436",761 ± 3 kg/m3
same,mass density,"303.41 K, 80000 kPa, x2 = 0.4436",782 ± 3 kg/m3
same,mass density,"303.41 K, 99990 kPa, x2 = 0.4436",791 ± 3 kg/m3
same,mass density,"303.42 K, 30000 kPa, x2 = 0.4436",755 ± 3 kg/m3
same,mass density,"303.42 K, 60000 kPa, x2 = 0.4436",772 ± 3 kg/m3
same,mass density,"303.43 K, 100 kPa, x2 = 0.6433",730 ± 3 kg/m3
same,mass density,"303.43 K, 1000 kPa, x2 = 0.6433",731 ± 3 kg/m3
same,mass density,"303.43 K, 20000 kPa, x2 = 0.6433",745 ± 3 kg/m3
same,mass density,"303.43 K, 30000 kPa, x2 = 0.6433",752 ± 3 kg/m3
same,mass density,"303.43 K, 40000 kPa, x2 = 0.6433",758 ± 3 kg/m3
same,mass density,"303.43 K, 60000 kPa, x2 = 0.6433",769 ± 3 kg/m3
same,mass density,"303.43 K, 80000 kPa, x2 = 0.6433",779 ± 3 kg/m3
same,mass density,"303.43 K, 100000 kPa, x2 = 0.6433",788 ± 3 kg/m3
same,mass density,"303.44 K, 5000 kPa, x2 = 0.6433",734 ± 3 kg/m3
same,mass density,"303.44 K, 10000 kPa, x2 = 0.6433",738 ± 3 kg/m3
same,mass density,"303.45 K, 100 kPa, x2 = 0.7841",727 ± 3 kg/m3
same,mass density,"303.45 K, 10000 kPa, x2 = 0.7841",735 ± 3 kg/m3
same,mass density,"303.45 K, 20000 kPa, x2 = 0.7841",742 ± 3 kg/m3
same,mass density,"303.45 K, 30000 kPa, x2 = 0.7841",749 ± 3 kg/m3
same,mass density,"303.45 K, 40000 kPa, x2 = 0.7841",755 ± 3 kg/m3
same,mass density,"303.45 K, 60000 kPa, x2 = 0.7841",766 ± 3 kg/m3
same,mass density,"303.45 K, 80000 kPa, x2 = 0.7841",776 ± 3 kg/m3
same,mass density,"303.45 K, 100000 kPa, x2 = 0.7841",785 ± 3 kg/m3
same,mass density,"303.46 K, 1000 kPa, x2 = 0.7841",728 ± 3 kg/m3
same,mass density,"303.47 K, 5000 kPa, x2 = 0.7841",731 ± 3 kg/m3
same,mass density,"312.89 K, 100 kPa, x2 = 0",736 ± 3 kg/m3
same,mass density,"312.89 K, 1000 kPa, x2 = 0",737 ± 3 kg/m3
same,mass density,"312.9 K, 5000 kPa, x2 = 0",740 ± 3 kg/m3
same,mass density,"312.9 K, 10000 kPa, x2 = 0",744 ± 3 kg/m3
same,mass density,"312.9 K, 20000 kPa, x2 = 0",751 ± 3 kg/m3
same,mass density,"312.9 K, 30000 kPa, x2 = 0",757 ± 3 kg/m3
same,mass density,"312.9 K, 40000 kPa, x2 = 0",763 ± 3 kg/m3
same,mass density,"312.9 K, 50000 kPa, x2 = 0",769 ± 3 kg/m3
same,mass density,"312.9 K, 60000 kPa, x2 = 0",774 ± 3 kg/m3
same,mass density,"312.9 K, 70000 kPa, x2 = 0",780 ± 3 kg/m3
same,mass density,"312.9 K, 80000 kPa, x2 = 0",784 ± 3 kg/m3
same,mass density,"312.9 K, 90000 kPa, x2 = 0",789 ± 3 kg/m3
same,mass density,"312.9 K, 100000 kPa, x2 = 0",793 ± 3 kg/m3
same,mass density,"313.23 K, 100 kPa, x2 = 0.2297",732 ± 3 kg/m3
same,mass density,"313.24 K, 1000 kPa, x2 = 0.2297",732 ± 3 kg/m3
same,mass density,"313.24 K, 5000 kPa, x2 = 0.2297",736 ± 3 kg/m3
same,mass density,"313.24 K, 10000 kPa, x2 = 0.2297",740 ± 3 kg/m3
same,mass density,"313.24 K, 20000 kPa, x2 = 0.2297",747 ± 3 kg/m3
same,mass density,"313.24 K, 30000 kPa, x2 = 0.2297",753 ± 3 kg/m3
same,mass density,"313.24 K, 40000 kPa, x2 = 0.2297",760 ± 3 kg/m3
same,mass density,"313.24 K, 60000 kPa, x2 = 0.2297",771 ± 3 kg/m3
same,mass density,"313.25 K, 80000 kPa, x2 = 0.2297",781 ± 3 kg/m3
same,mass density,"313.25 K, 100000 kPa, x2 = 0.2297",790 ± 3 kg/m3
same,mass density,"313.3 K, 30000 kPa, x2 = 0.4436",750 ± 3 kg/m3
same,mass density,"313.3 K, 40000 kPa, x2 = 0.4436",756 ± 3 kg/m3
same,mass density,"313.3 K, 100000 kPa, x2 = 0.4436",787 ± 3 kg/m3
same,mass density,"313.31 K, 100 kPa, x2 = 0.4436",728 ± 3 kg/m3
same,mass density,"313.31 K, 1000 kPa, x2 = 0.4436",729 ± 3 kg/m3
same,mass density,"313.31 K, 10000 kPa, x2 = 0.4436",736 ± 3 kg/m3
same,mass density,"313.31 K, 20000 kPa, x2 = 0.4436",743 ± 3 kg/m3
same,mass density,"313.31 K, 60000 kPa, x2 = 0.4436",767 ± 3 kg/m3
same,mass density,"313.31 K, 80000 kPa, x2 = 0.4436",778 ± 3 kg/m3
same,mass density,"313.32 K, 5000 kPa, x2 = 0.4436",732 ± 3 kg/m3
same,mass density,"313.36 K, 100 kPa, x2 = 0.6433",724 ± 3 kg/m3
same,mass density,"313.36 K, 1000 kPa, x2 = 0.6433",725 ± 3 kg/m3
same,mass density,"313.36 K, 10000 kPa, x2 = 0.6433",732 ± 3 kg/m3
same,mass density,"313.36 K, 20000 kPa, x2 = 0.6433",740 ± 3 kg/m3
same,mass density,"313.37 K, 100 kPa, x2 = 0.7841",721 ± 3 kg/m3
same,mass density,"313.37 K, 1000 kPa, x2 = 0.7841",722 ± 3 kg/m3
same,mass density,"313.37 K, 5000 kPa, x2 = 0.6433",728 ± 3 kg/m3
same,mass density,"313.37 K, 5000 kPa, x2 = 0.7841",725 ± 3 kg/m3
same,mass density,"313.37 K, 10000 kPa, x2 = 0.7841",729 ± 3 kg/m3
same,mass density,"313.37 K, 30000 kPa, x2 = 0.6433",746 ± 3 kg/m3
same,mass density,"313.37 K, 40000 kPa, x2 = 0.6433",753 ± 3 kg/m3
same,mass density,"313.37 K, 40000 kPa, x2 = 0.7841",750 ± 3 kg/m3
same,mass density,"313.37 K, 60000 kPa, x2 = 0.7841",762 ± 3 kg/m3
same,mass density,"313.37 K, 80000 kPa, x2 = 0.7841",772 ± 3 kg/m3
same,mass density,"313.38 K, 20000 kPa, x2 = 0.7841",737 ± 3 kg/m3
same,mass density,"313.38 K, 30000 kPa, x2 = 0.7841",744 ± 3 kg/m3
same,mass density,"313.38 K, 60000 kPa, x2 = 0.6433",764 ± 3 kg/m3
same,mass density,"313.38 K, 80000 kPa, x2 = 0.6433",774 ± 3 kg/m3
same,mass density,"313.38 K, 100000 kPa, x2 = 0.6433",784 ± 3 kg/m3
same,mass density,"313.38 K, 100000 kPa, x2 = 0.7841",781 ± 3 kg/m3
same,mass density,"322.83 K, 100 kPa, x2 = 0",727 ± 3 kg/m3
same,mass density,"322.83 K, 1000 kPa, x2 = 0",728 ± 3 kg/m3
same,mass density,"322.83 K, 5000 kPa, x2 = 0",732 ± 3 kg/m3
same,mass density,"322.83 K, 10000 kPa, x2 = 0",736 ± 3 kg/m3
same,mass density,"322.83 K, 20000 kPa, x2 = 0",743 ± 3 kg/m3
same,mass density,"322.83 K, 30000 kPa, x2 = 0",750 ± 3 kg/m3
same,mass density,"322.83 K, 40000 kPa, x2 = 0",756 ± 3 kg/m3
same,mass density,"322.83 K, 50000 kPa, x2 = 0",762 ± 3 kg/m3
same,mass density,"322.83 K, 60000 kPa, x2 = 0",768 ± 3 kg/m3
same,mass density,"322.83 K, 70000 kPa, x2 = 0",773 ± 3 kg/m3
same,mass density,"322.83 K, 80000 kPa, x2 = 0",778 ± 3 kg/m3
same,mass density,"322.83 K, 90000 kPa, x2 = 0",783 ± 3 kg/m3
same,mass density,"322.83 K, 100000 kPa, x2 = 0",787 ± 3 kg/m3
same,mass density,"323.08 K, 100 kPa, x2 = 0.2297",723 ± 3 kg/m3
same,mass density,"323.08 K, 1000 kPa, x2 = 0.2297",724 ± 3 kg/m3
same,mass density,"323.08 K, 5000 kPa, x2 = 0.2297",727 ± 3 kg/m3
same,mass density,"323.08 K, 10000 kPa, x2 = 0.2297",731 ± 3 kg/m3
same,mass density,"323.08 K, 20000 kPa, x2 = 0.2297",739 ± 3 kg/m3
same,mass density,"323.08 K, 30000 kPa, x2 = 0.2297",746 ± 3 kg/m3
same,mass density,"323.08 K, 40000 kPa, x2 = 0.2297",752 ± 3 kg/m3
same,mass density,"323.09 K, 100 kPa, x2 = 0.4436",719 ± 3 kg/m3
same,mass density,"323.09 K, 60000 kPa, x2 = 0.2297",764 ± 3 kg/m3
same,mass density,"323.09 K, 80000 kPa, x2 = 0.2297",774 ± 3 kg/m3
same,mass density,"323.09 K, 100010 kPa, x2 = 0.2297",784 ± 3 kg/m3
same,mass density,"323.1 K, 1000 kPa, x2 = 0.4436",720 ± 3 kg/m3
same,mass density,"323.1 K, 5000 kPa, x2 = 0.4436",724 ± 3 kg/m3
